Reference: ChEMBL document CHEMBL4602620, “N,O-Dialkyl deoxynojirimycin derivatives as CERT START domain ligands” (Bioorg Med Chem Lett, 2020)

Tests used:
Aspergillus niger = test: Inhibition of Aspergillus niger amyloglucosidase at 0.2 mM relative to control
Saccharomyces cerevisiae = test: Inhibition of Saccharomyces cerevisiae alpha-glucosidase at 0.2 mM relative to control
[1] = biological target: T1, Ceramide transfer protein (Homo sapiens) (UniProt Q9Y5P4); test: Displacement of fluorescent tagged ceramide from immobilized His-tagged CERT START domain (unknown origin) assessed as reduction in residual fluorescence activity by FLINT assay relative to control; set-up: concentration or dose not given beside the values; conditions: concentration not given here
T1 sequence (whole entry): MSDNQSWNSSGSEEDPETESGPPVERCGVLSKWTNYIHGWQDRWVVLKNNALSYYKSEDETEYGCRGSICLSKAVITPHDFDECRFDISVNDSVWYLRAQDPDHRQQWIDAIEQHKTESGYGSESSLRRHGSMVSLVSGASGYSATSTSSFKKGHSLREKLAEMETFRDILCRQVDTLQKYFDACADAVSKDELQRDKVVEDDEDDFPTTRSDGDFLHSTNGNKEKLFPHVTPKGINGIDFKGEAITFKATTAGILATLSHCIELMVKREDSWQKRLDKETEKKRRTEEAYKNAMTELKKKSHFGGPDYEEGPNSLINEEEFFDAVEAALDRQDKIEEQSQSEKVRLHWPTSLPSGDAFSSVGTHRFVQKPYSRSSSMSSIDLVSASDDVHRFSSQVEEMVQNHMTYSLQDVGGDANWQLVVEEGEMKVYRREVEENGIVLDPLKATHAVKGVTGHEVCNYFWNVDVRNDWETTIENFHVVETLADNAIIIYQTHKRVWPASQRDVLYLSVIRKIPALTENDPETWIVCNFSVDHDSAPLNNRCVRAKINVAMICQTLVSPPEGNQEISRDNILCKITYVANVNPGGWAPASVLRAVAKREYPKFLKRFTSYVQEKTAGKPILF

Prunus dulcis = test: Inhibition of almond beta-glucosidase at 0.2 mM relative to control

| inhibition (Aspergillus niger) [%] | inhibition (Saccharomyces cerevisiae) [%] | inhibition [1] [%] | inhibition (Prunus dulcis) [%] | SMILES |
| --- | --- | --- | --- | --- |
| 88 | 13 | 25 | 39 | CCCCCCCCCCCCN1C[C@H](O)[C@@H](O)[C@H](O)[C@H]1CO |
| – | – | 25 | – | CCCCCCCCCCCCC/C=C/[C@@H](O)[C@H](CO)NC(=O)CCCCCCCCCCCCCCC |
| 6 | 5.1 | 40 | 0.65 | CCCCCCCCCCCCO[C@H]1CN(CCCCCCCCCCCC)[C@H](CO)[C@@H](O)[C@@H]1O |
| – | – | 25 | – | CCCCCCCCCCCC(=O)N[C@@H](CO)C[C@H](O)c1ccccc1 |
| – | – | 25 | – | CCCCCCCCCCCCO[C@H]1CN(CCCCCCCCCCCC)C[C@@H](O)[C@@H]1O |
| 11 | 7.3 | 20 | 1.7 | CCCCCCCCCCCCO[C@H]1[C@H](O)[C@@H](O)CN(CCCCCCCCCCCC)[C@@H]1CO |
